{
  "source": "patent US9107954B2",
  "about": "“Bivalent ligands for the treatment of neurological disorders” (Virginia Commonwealth University, priority 2012, dated 2015)",
  "key": {"CCR5 [1]": {"target": "T1, CCR5 (Homo sapiens (Human), UniProt P51681)", "T1 sequence (P51681 whole entry)": "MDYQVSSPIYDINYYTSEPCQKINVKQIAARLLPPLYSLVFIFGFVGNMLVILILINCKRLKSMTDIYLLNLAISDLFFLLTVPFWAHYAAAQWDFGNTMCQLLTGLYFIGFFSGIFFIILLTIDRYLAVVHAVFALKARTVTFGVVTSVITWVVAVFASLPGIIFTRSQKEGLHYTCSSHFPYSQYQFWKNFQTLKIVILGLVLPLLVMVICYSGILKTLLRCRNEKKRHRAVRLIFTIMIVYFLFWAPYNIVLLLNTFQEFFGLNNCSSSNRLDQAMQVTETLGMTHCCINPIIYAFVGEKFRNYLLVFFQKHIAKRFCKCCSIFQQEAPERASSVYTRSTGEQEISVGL", "assay": "Calcium mobilization assay in MOLT-4/CCR5 cells, RANTES-stimulated (Example 1)", "type": "cell-based", "conditions": "CCR5/MOLT-4 cells", "method": "The ligands were first tested with various doses (in the range of 0.1 nM to 1 μM) for possible agonist activity. The protocol was the same for the following antagonism study, except no CCL5 (RANTES) was added. MOLT-4/CCR5 cells were plated in black 96-well plates with transparent bottom (Greinier Bio-one) at 100,000 cells per well in 50:1 HBSS:HEPES assay buffer. They were incubated for 1 hour at 37° C. and 5% CO2 with control buffer or varying concentration of ligand for a total volume of 130 μL per well. Cells were then incubated with 50 μL of Fluo-4-AM loading buffer (40 μL 2 μM Fluo-4 dye, 100 μL 2.5 mM probenacid, in 5 mL assay buffer) for an additional hour. Then 20μL 200 nM RANTES solution in assay buffer or assay buffer alone were added to the wells right before changes in Ca^2+ concentration were monitored by RFU for 90 seconds using a microplate reader (FlexStation3, Molecular Devices). Peak values were obtained using SoftMaxPro software (Molecular Devices) and non-linear regression curves were generated using Prism (GraphPad) to calculate IC50 values."}, "mu opioid receptor": {"target": "mu opioid receptor (Homo sapiens (Human), UniProt P35372)", "assay": "biochemical", "conditions": "read-out: Emax, 35S-GTP[γS] binding", "method": "MOR/CHO cell culture and membrane homogenate preparation followed literature report^52.\nFor competition binding assay (agonists or antagonists), Hill plots linear regression analysis and the Cheng-Prusoff equation were applied to determine the IC50 and Ki values. In [^35S]GTPγS binding assays, agonist concentration effect curves were fit by non-linear regression to obtain Emax and EC50 values; antagonist inhibition of agonist-stimulated [^35S]GTPγS binding was analyzed by Hill analysis and AD50 values were corrected to Ki values using the Cheng-Prusoff equation. All analyses were using Prism 4.0."}, "[2]": {"test_system": "R5-tropic HIV-1SF162 in primary human astrocytes", "assay": "HIV-1SF162 infectivity, Tat luciferase reporter assay in primary human astrocytes", "type": "cell-based", "method": "Primary human astrocytes (ScienCell catalog #1901) were cultured in 24-well plates and transfected with the plasmid pBlue3′LTR-luc (NIH AIDS Research and Reference Reagent Program) using Lipofectamine 2000 (Invitrogen) followed by infection with HIV-1. After 18-20 h cells were rinsed twice in 1×PBS then lysed in Cell Culture Lysis Reagent (Promega) and relative Tat protein expression was determined by measuring luciferase activity using the Luciferase Assay System (Promega; catalog # E1500). Light units were measured using a PHERAstar FS plate reader (BMG Labtech).\nPrimary human astroglial cells were infected by incubation with the neurotropic HIV-1 strain SF162. A concentration of HIV-1 p24 50 pg/10^6 cells was used, and a no virus condition served as a negative control. Viral stocks were quantified by assaying for HIV-1 p24 (Alliance p24 Antigen ELISA Kit; Advanced Bioscience, Kensington, Md.).\nHIV-1SF162 infectivity of human astroglia was determined based on the relative amount of Tat protein expressed by the virus using a luciferase-based reporter assay. Reporters under the control of the long terminal repeat (LTR) viral promoter are a robust means of measuring HIV-1 infection, since the LTR is activated by HIV-1 Tat, which is only expressed by infected cells.\nAs the bivalent ligand 1 has been designed as a molecular probe to study the underlying mechanisms of opioid-enhanced NeuroAIDS by targeting the MOR-CCR5 heterodimerization, a luciferase-based HIV-1SF162) infection assay measuring the relative transactivator of transcription (Tat) protein expression in human astrocytes was performed (FIG. 15). Tat is encoded by HIV-1 and is the first protein to be produced after HIV-1 infection. Thus, Tat expression level is directly proportioned to the extent of HIV-1 invasion. Astrocytes were chosen based on the following facts: first, astrocytes express both the MOR and the CCR5. Second, the human blood-brain barrier (BBB) is composed of interacting adjacent cerebral endothelial cells (CECs) and astrocytes, which makes astrocytes a readily accessible target during the course of HIV infection. Thirdly, during NeuroAIDS development astroglia are important cellular sites within the CNS where opioids synergistically potentiate the pathophysiological effects of HIV-1 infection."}, "CCR5 [3]": {"test_system": "CCR5", "assay": "Flow cytometry of CCR5 immunofluorescence in HIV-1 infected primary human astrocytes", "type": "cell-based", "conditions": "maraviroc co-exposure; bivalent ligand ± morphine", "method": "MOR and CCR5 immunoreactivity were detected by direct immunofluorescence in astroglial cells by flow cytometric analysis. Cells were washed in phosphate-buffered saline (PBS)-0.1% bovine serum albumin (BSA) buffer and incubated with primary MOR antibody followed by a secondary antibody conjugated to allophycocyanin (APC) (Biolegend, Inc; catalog #408001) and Alexa Fluor® 488 conjugated anti-mouse CD195 (CCR5) antibody (Biolegend, Inc; catalog #107008) in permeabilization buffer (PBS-0.1% BSA-0.1% Triton X-100) at a 1:500 dilution. Fluorescence was measured from 10,000 gated cells per treatment in each experiment using a FACSCanto II flow cytometer (BD Biosciences, San Jose, Calif.). Auto-fluorescence was compensated by setting the detector voltage to the minimum level that discriminates between auto-fluorescence and specific immunofluorescence in both negative and positive controls. Isotype control antibodies were used to define settings in histogram plot analyses.\nWe quantitatively analyzed the effect of MVC and the bivalent compound on CCR5 and MOR expression levels in virally infected astrocytes by flow cytometry. […] Approximately 20,000 events were analyzed per treatment condition in each experiment and size discrimination was used as a crude method for viability determination."}, "human astrocytes": {"test_system": "human astrocytes", "assay": "Cytotoxicity assay, AOPI live/dead labeling of human astrocytes", "type": "cell-based", "method": "Cell viability was assessed by measurement of both live and dead cells using dual (green/red) fluorescence labeling with AOPI analyzed with Cellometer Vision CBA (Nexcelom Bioscience LLC).\nTo determine whether HIV-1±morphine exposure affected astrocyte viability in the presence or absence of MVC or the bivalent compound, a cell death assay was performed at 24 h after treatment."}, "MOR": {"target": "MOR (Homo sapiens (Human), UniProt P35372)", "assay": "DAMGO-stimulated Ca2+ flux assay in hMOR-CHO cells transfected with Gqi5", "type": "cell-based"}, "CCR5 [4]": {"target": "T1, CCR5", "assay": "RANTES-stimulated Ca2+ flux assay in Gqi5 transfected CCR5-MOLT-4 cells (Example 4)", "type": "cell-based"}},
  "data": [
    {"compound": "Cc1nnc(C(C)C)n1C1CC2CCC(C1)N2CC[C@H](NC(=O)C1CCC(F)(F)CC1)c1ccc(NC(=O)COCC(=O)NCCCCCCCNC(=O)COCC(=O)N[C@@H]2CC[C@@]3(O)[C@H]4Cc5ccc(O)c6c5[C@@]3(CCN4CC3CC3)[C@H]2O6)cc1", "note": "(stereo partly drawn) [bivalent ligand 1]", "values": [
      {"measurement": "IC50", "setting": "CCR5 [1]; RANTES, read-out: calcium flux inhibition IC50", "value": "231 ± 88", "unit": "nM"},
      {"measurement": "agonism in calcium mobilization assay", "setting": "CCR5 [1]; no RANTES added", "value": "no agonism"},
      {"measurement": "Emax", "setting": "mu opioid receptor", "value": "11.7 ± 1.2", "unit": "%"},
      {"measurement": "potency in HIV-1 entry inhibition relative to the mixture of maraviroc and naltrexone", "setting": "[2]", "value": "two times"},
      {"measurement": "decrease in Tat expression compared to maraviroc alone or the combination of maraviroc and naltrexone", "setting": "[2]; 100 nM", "value": "two-fold"},
      {"measurement": "fold decrease in Tat expression compared to MVC with NTX plus morphine, bivalent compound plus morphine", "setting": "[2]; 100 nM + morphine 500 nM", "value": 4.4, "unit": "fold"},
      {"measurement": "fold decrease in Tat expression compared to R5 plus MVC, bivalent compound plus morphine", "setting": "[2]; 100 nM + morphine 500 nM", "value": 2.9, "unit": "fold"},
      {"measurement": "fold decrease in Tat expression compared to R5 HIV-1 alone", "setting": "[2]; 100 nM, 18-20 h post-infection, no morphine", "value": 4.4, "unit": "fold"},
      {"measurement": "fold decrease in virus entry compared to maraviroc with morphine", "setting": "[2]; 100 nM, morphine 500 nM, Example 3", "value": 7, "unit": "fold"},
      {"measurement": "fold decrease in virus entry compared to maraviroc alone", "setting": "[2]; 100 nM, without morphine, Example 3", "value": 3.3, "unit": "fold"},
      {"measurement": "fold decrease in Tat expression compared to R5 plus MVC", "setting": "[2]; bivalent ligand 100 nM, no morphine", "value": 2.0, "unit": "fold"},
      {"measurement": "effect of morphine stimulation on potency", "setting": "[2]; morphine 500 nM", "value": "no effect"},
      {"measurement": "fold decrease in CCR5 expression levels compared to R5 HIV-1", "setting": "CCR5 [3]", "value": 1.8, "unit": "fold"},
      {"measurement": "astrocyte viability", "setting": "human astrocytes; 100 nM, HIV-1 ± morphine, 24 h", "value": "did not significantly affect the survival"},
      {"measurement": "toxicity in the astrocytes, cytotoxicity assays (not shown)", "setting": "human astrocytes; Example 3", "value": "neither maraviroc nor 1 had any toxicity"},
      {"measurement": "fold reduction of potency to antagonize DAMGO-induced Ca2+ flux compared to naltrexone", "setting": "MOR", "value": "less than 5 fold"},
      {"measurement": "IC50", "setting": "MOR; DAMGO stimulated, hMOR-CHO Gqi5, read-out: Ca2+ inhibition IC50 ± SEM", "value": "40 ± 4.8", "unit": "nM"},
      {"measurement": "agonism in Ca2+ mobilization assay", "setting": "MOR; hMOR-CHO Gqi5, data not shown", "value": "No agonism"},
      {"measurement": "fold less potent than maraviroc in RANTES induced Ca2+ flux inhibition", "setting": "CCR5 [4]", "value": "approximately 60 fold"},
      {"measurement": "IC50", "setting": "CCR5 [4]; RANTES stimulated, read-out: Ca2+ inhibition IC50 ± SEM", "value": "126 ± 28", "unit": "nM"},
      {"measurement": "CCR5 agonism", "setting": "CCR5 [4]; data not shown", "value": "no CCR5 agonism"}
    ]}
  ]
}
